For series [1], the target named is T1, Pyk2 (Homo sapiens, UniProt Q14289). Kind of series: Pyk2 Ki of kinase inhibitors (CHEMBL & IUPHR-BPS database screen, Table 2). In kind it is biochemical. To be noted: Pyk2 versus Fyn.
Series [2] can be described thus: Brain and plasma levels after peripheral dosing (LC/MS/MS). In kind it is in vivo, mouse. On the procedure: In brain slices and in dissociated primary neuronal cultures, Aβo causes Fyn activation, Pyk2 activation, altered Glu-induced calcium signaling, dendritic spine loss and suppression of LTP. […] After developing LC/MS/MS methods to detect PF-719, the extent to which the Pyk2 inhibitor enters brain from peripheral dosing was determined. […] Continuous 25 mg/kg/d minipump i.p. infusion was chosen for treatment of APP/PS1 mice.

In series [3] the test system is primary hippocampal neurons. Nature of the series: Aβo-dependent dendritic spine loss in primary hippocampal neurons. In kind it is cell-based, mouse. To be noted: Aβo for 4 days. The source says:
FIGS. 11A-11H illustrate the finding that Aβo-induced dendritic spine deficits are prevented by deletion of Pyk2 and RhoA inhibition in primary neurons. FIG. 11A: Representative images of dendritic spine motility by standard deviation projection of time-lapse image. […] The standard deviation value for each pixel is shown by thermal color scale. Scale bar, 10 μm. FIG. 11B: Quantification of spine motility, expressed as % of changed area of spines with subtraction of changed area of dendritic shaft as background (changed area=(ΔAspine/Aspine×100)−(ΔAshaft/Ashaft×100)). […]
It was considered whether the acute effects of Aβo-induced, Pyk2-mediated decrease on spine motility might be translated into alteration in spine number over longer time periods. Dendritic spine density was measured in populations of vehicle and Aβo treated primary hippocampal neuron cultures. […]
Analysis and quantification of data were performed with Volocity software after max intensity projection. The numbers of dendritic spines were counted manually to estimate the density of primary or secondary dendritic branch by observer unaware of drug or genotype. For each condition, at least 3 dendrites were measured from each neuron and 5-7 neurons were imaged per coverslip. […]

Series [4] concerns the target T1, Pyk2. Nature of the series: Luciferase-based (ADP-Glo) PYK2 kinase assay. It counts as biochemical. The method, then: Enzyme, substrate, ATP and inhibitors are diluted in Tyrosine Kinase Buffer. […] The resulting system is incubated at room temperature for 60 minutes. 5 μl of ADP-GLO™ Reagent are added. […] 10 μl of Kinase Detection Reagent are added. […] Luminescence is recorded (Integration time 0.5-1 second).

In series [5] the target is T1, Pyk2. The following applies: cited from earlier work.
The target in series [6] is FAK (Homo sapiens, UniProt Q05397). To be noted: cited from earlier work.
Chain of FAK (Q05397 whole entry, species assumed): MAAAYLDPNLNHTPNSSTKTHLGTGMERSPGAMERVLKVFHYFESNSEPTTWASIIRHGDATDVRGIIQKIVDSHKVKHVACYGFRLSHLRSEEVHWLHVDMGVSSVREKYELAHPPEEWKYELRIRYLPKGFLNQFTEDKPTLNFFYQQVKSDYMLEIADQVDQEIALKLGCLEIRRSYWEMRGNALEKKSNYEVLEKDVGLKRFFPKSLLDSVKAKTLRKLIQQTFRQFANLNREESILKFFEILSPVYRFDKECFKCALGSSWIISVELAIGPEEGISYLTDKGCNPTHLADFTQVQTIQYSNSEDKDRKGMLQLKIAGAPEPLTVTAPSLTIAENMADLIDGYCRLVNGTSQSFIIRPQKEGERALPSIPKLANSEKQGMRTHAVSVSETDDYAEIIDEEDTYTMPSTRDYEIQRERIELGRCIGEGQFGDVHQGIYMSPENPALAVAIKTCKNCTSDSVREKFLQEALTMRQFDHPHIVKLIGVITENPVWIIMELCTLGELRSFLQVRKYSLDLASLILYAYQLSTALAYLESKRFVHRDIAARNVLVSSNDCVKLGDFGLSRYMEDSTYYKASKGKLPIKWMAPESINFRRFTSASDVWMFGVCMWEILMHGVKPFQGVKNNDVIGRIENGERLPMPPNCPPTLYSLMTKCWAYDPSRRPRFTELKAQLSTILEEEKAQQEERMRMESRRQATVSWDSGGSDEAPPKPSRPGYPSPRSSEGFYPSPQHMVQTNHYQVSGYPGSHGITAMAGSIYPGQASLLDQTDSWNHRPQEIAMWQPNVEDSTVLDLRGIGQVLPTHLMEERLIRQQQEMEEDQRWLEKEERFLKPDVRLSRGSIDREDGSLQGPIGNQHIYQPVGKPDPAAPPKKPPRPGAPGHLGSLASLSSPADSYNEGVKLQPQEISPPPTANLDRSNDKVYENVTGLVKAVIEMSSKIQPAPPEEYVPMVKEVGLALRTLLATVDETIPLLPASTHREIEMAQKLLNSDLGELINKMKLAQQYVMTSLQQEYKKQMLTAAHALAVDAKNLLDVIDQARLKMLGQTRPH

Where two headings read alike, the source gives them in different places.

T1 sequence (Q14289 whole entry, species assumed, the tested form may be a part): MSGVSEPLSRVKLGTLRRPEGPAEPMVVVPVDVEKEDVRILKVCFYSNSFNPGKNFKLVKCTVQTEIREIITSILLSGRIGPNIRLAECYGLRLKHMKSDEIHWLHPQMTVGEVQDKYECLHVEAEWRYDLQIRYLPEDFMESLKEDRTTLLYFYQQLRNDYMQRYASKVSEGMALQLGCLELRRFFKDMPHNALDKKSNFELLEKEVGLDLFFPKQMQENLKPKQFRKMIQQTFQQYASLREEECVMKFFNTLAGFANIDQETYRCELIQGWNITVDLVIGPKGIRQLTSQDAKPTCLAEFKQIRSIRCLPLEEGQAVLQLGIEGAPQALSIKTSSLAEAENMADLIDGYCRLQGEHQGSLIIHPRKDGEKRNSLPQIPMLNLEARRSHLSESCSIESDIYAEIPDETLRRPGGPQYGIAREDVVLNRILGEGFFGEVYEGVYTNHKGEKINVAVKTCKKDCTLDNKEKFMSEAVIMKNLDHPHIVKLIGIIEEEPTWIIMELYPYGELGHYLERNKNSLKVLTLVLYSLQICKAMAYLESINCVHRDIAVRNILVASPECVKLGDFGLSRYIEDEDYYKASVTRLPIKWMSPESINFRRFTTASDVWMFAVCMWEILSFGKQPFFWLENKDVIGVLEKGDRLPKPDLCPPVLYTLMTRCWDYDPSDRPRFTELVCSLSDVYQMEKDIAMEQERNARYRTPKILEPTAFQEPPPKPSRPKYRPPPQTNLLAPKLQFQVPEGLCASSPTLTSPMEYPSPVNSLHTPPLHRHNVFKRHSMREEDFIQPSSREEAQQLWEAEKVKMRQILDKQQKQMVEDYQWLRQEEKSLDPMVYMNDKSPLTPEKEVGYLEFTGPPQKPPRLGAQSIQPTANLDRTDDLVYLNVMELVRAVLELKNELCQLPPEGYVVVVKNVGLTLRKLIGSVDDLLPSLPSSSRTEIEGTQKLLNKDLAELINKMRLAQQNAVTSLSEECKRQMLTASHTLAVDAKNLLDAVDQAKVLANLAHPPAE

In the case of `CCOc1ccc2nc(SCc3nc(N)nc(N4CCOCC4)n3)sc2c1` [PF-719, 4-(((6-ethoxybenzo[d]thiazol-2-yl)thio)methyl)-6-morpholino-1,3,5-triazin-2-amine], in series [1], the “Inhibition Character” value is recorded as “Pyk2 selective”. Moreover, the “brain level above the Ki” value in series [2] (5 mg/kg, 90 min) was 30 fold. In addition, in series [2] (mouse, brain and plasma, other: i.p. or p.o., single dose 5 mg/kg i.p. or p.o., 90 min, read-out: brain level as share of plasma level), the Kp at 90 min was approximately 0.3. Also, the concentration at 90 min in series [2] (mouse, brain, other: i.p. or p.o., single peripheral dose of 5 mg/kg i.p. or p.o., at 90 min) came to 450 ± 110 nM. The same molecule had a half-life in series [2] (mouse, in vivo, other: i.p. or p.o., single dose 5 mg/kg i.p. or p.o.) of 6 h. For the same molecule, the Oral bioavailability result in series [2] (p.o. compared with i.p.) is “equal”. The “Aβo dependent spine loss” value in series [3] is listed as “rescue fully Aβo dependent spine loss”. Moreover, the “Pyk2 inhibition in luciferase-based biochemical assay” value in series [4] was “confirm the respective specificities”. For the same molecule, the Ki in series [5] (isolated Pyk2, read-out: Ki for isolated Pyk2) was 15 nM; in series [5] (read-out: Pyk2 Ki), 10 nM; in series [6], 450 nM.

Source of the values: patent US20190275040A1, “COMPOUNDS AND METHODS FOR TREATING OR PREVENTING ALZHEIMER'S DISEASE” (YALE UNIVERSITY, priority 2016, published 2019).
